Test system: patients with refractory metastatic colorectal cancer (mCRC)
Test: PFS, OS and disease control in the training (evaluation) cohort of refractory mCRC patients receiving TAS-102 (n=52, Japan), by baseline characteristics, SNP genotype and toxicity
Format: in vivo, human
Experimental: All patients underwent the treatment in salvage-line setting. […]
(§1) Genomic DNA was extracted from peripheral whole blood in patients of all cohorts using the QIAmp Kit (Qiagen, Valencia, Calif., USA) according to the manufacturer's protocol (www.qiagen.com). The candidate SNPs were genotyped using PCR-based direct DNA sequence analysis by ABI 3100A Capillary Genetic Analyzer and Sequencing Scanner v1.0 (Applied Biosystems). Amplification of extracted DNA was carried out using both forward and reverse primers for each gene polymorphism as shown in Table 1. […] The investigators analyzing SNPs were blinded to the clinical data of the study patients.
The primary endpoint in this study was progression-free survival (PFS), and the secondary endpoints were overall survival (OS) and disease control rate (DCR). PFS was calculated from the date of starting treatment to the first observation of disease progression or death from any cause. If a patient had no disease progression or death, PFS was censored at the date of last follow up. OS was calculated from the date of starting treatment until the date of death from any cause or the date of the last follow-up, at which point OS was censored. The disease control rate (DCR) was defined as the proportion of patients who achieved a stable disease (SD) or […] according to RECISTv1.1. Chi-square test was used to examine the difference in baseline patient characteristics among the three cohorts. Allelic distribution of all SNPs by ethnicity for deviation from Hardy-Weinberg equilibrium and the allelic frequencies of SNPs were tested using the Chi-square tests with one degree of freedom. The associations between candidate SNPs and disease control, and toxicities were examined using contingency tables and Fisher's exact test. The associations of SNPs with PFS and OS were analysed using Kaplan-Meier curves and the log-rank test. Because the true mode of inheritance of candidate SNPs was not established yet, a codominant or dominant genetic model if appropriate was considered.
All patients underwent the treatment in salvage-line setting. […] In all patients, adverse events were graded according to the Common Terminology Criteria for Adverse Events, version 4.0. […]
as §1, with “tested” for “genotyped”, “Biosystems).” for “Biosystems). Amplification of extracted DNA was carried out using both forward and reverse primers for each gene polymorphism as shown in Table 1.”, “data.” for “data of the study patients.”
The primary endpoint in this study was progression-free survival (PFS), and the secondary endpoints were overall survival (OS) and disease control rate (DCR).

[1] = training cohort, OCT2 rs316019 C/C
[2] = training cohort, hENT1 + OCT2/MATE1 classification: Fair
[3] = training cohort, hENT1rs750370_19 Excellent
[4] = training cohort, hENT1rs750370_19 Faire
[5] = training cohort, hENT1rs750370_19 Faire vs Poor
[6] = training cohort, hENT1rs750370_19 Good
[7] = training cohort, hENT1rs750370_19 Good and Excellent combined
[8] = training cohort, hENT1rs750370_19 Good and Excellent combined vs Poor
[9] = training cohort, hENT1rs750370_19 Poor
[10] = training cohort, hENT1 rs760370, multivariate adjusted for liver metastases and adjuvant history
[11] = training cohort, hENT1 rs760370 A/A
[12] = training cohort, hENT1 rs760370 A/G
[13] = training cohort, hENT1 rs760370 A/G and G/G combined
[14] = training cohort, hENT1 rs760370 A/G and G/G combined vs A/A
[15] = training cohort, hENT1 rs760370 G/G
[16] = training cohort, hENT1 rs760370 any G allele
[17] = training cohort, hENT1 rs760370 any G vs A/A, univariate
[18] = training cohort, hENT1 rs9394992 C/C
[19] = training cohort, hENT1 rs9394992 C/T
[20] = training cohort, hENT1 rs9394992 C/T and T/T combined
[21] = training cohort, hENT1 rs9394992 C/T and T/T combined vs C/C
[22] = training cohort, hENT1 rs9394992 T/T
[23] = training cohort, hENT1 rs9394992 any T allele
[24] = training cohort, hENT1 rs9394992 any T vs C/C, univariate
[25] = training/evaluation cohort, grade 3≤ neutropenia vs less than grade 3, univariate
[26] = training/evaluation cohort, neutropenia less than grade 3 (n=32)
[27] = training/evaluation cohort, patients with grade 3≤ neutropenia (n=20)
[28] = whole training (evaluation) cohort

Substance: Trifluridine/tipiracil [TAS-102]
- Progression-free Survival HR (95% CI) univariate (training cohort, OCT2 rs316019 C/A and A/A combined vs C/C): 0.74 (0.35, 1.52)
- Disease Control Rate PD [1]: 24 (73%)
- Disease Control Rate SD [1]: 9 (27%)
- Overall Survival Median, months (95% CI) [1]: 8.1 (5.7, 12.4) months
- Progression-free Survival Median, months (95% CI) [1]: 2.5 (2.1, 3.4) months
- Progression-free Survival HR (95% CI) multivariate (training cohort, adjusted for liver metastasis and adjuvant history, CNT1 rs2290272 A/A genotype): 1.01 (0.38, 2.68)
- Progression-free Survival HR (95% CI) multivariate (training cohort, adjusted for liver metastasis and adjuvant history, CNT1 rs2290272 G/A genotype): 0.64 (0.29, 1.39)
- Progression-free Survival HR (95% CI) multivariate (training cohort, adjusted for liver metastasis and adjuvant history, CNT1 rs2290272 any A allele): 0.71 (0.33, 1.50)
- Progression-free Survival HR (95% CI) multivariate (training cohort, adjusted for liver metastasis and adjuvant history, MATE2 rs16960360 A/C or C/C genotype): 1.07 (0.55, 2.07)
- Progression-free Survival HR (95% CI) multivariate (training cohort, adjusted for liver metastasis and adjuvant history, OCT2 rs316000 A/G or G/G genotype): 1.11 (0.48, 2.56)
- Progression-free Survival HR (95% CI) multivariate (training cohort, adjusted for liver metastasis and adjuvant history, TK1 rs1065769 C/T or T/T genotype): 1.13 (0.58, 2.18)
- OS (training cohort, grade 2< neutropenia (so in the source)): 8.3 months
- HR for OS (training cohort, grade 2< vs grade 2> neutropenia): 0.41
- OS (training cohort, grade 2> neutropenia (so in the source)): 4.4 months
- OS [2]: 7.2
- PFS [2]: 2.1 months
- PFS (training cohort, hENT1 + OCT2/MATE1 classification: Good or Excellent): 3.5 months
- OS (training cohort, hENT1 + OCT2/MATE1 classification: Good or Excellent (third value as printed)): 3.4
- OS (training cohort, hENT1 + OCT2/MATE1 classification: Poor (first value)): 8.7
- Disease Control Rate PD [3]: 10 (50%)
- Disease Control Rate SD [3]: 10 (50%)
- Overall Survival Median, months (95% CI) [4]: 7.2 (2.7, 14.8) months
- Progression-free Survival Median, months (95% CI) [4]: 2.1 (1.6, 4.1) months
- Overall Survival HR (95% CI) multivariate [5]: 0.37 (0.11, 1.23)
- Overall Survival HR (95% CI) univariate [5]: 0.37 (0.12, 1.16)
- Progression-free Survival HR (95% CI) multivariate [5]: 0.48 (0.20, 1.16)
- Progression-free Survival HR (95% CI) univariate [5]: 0.42 (0.17, 1.03)
- Disease Control Rate PD [6]: 2 (67%)
- Disease Control Rate SD [6]: 1 (33%)
- Overall Survival Median, months (95% CI) [7]: 8.7 (8.1, 15.6) months
- Progression-free Survival Median, months (95% CI) [7]: 3.5 (2.5, 4.6) months
- Overall Survival HR (95% CI) multivariate [8]: 0.08 (0.02, 0.41)
- Overall Survival HR (95% CI) univariate [8]: 0.14 (0.04, 0.48)
- Progression-free Survival HR (95% CI) multivariate [8]: 0.28 (0.11, 0.55)
- Progression-free Survival HR (95% CI) univariate [8]: 0.26 (0.11, 0.59)
- Disease Control Rate PD [9]: 9 (100%)
- Disease Control Rate SD [9]: 0
- Overall Survival Median, months (95% CI) [9]: 3.4 (2.7, 6.5) months
- Progression-free Survival Median, months (95% CI) [9]: 1.6 (0.9, 2.9) months
- PFS (training cohort, hENT1 rs760370 + OCT2 rs316019/MATE1 rs2289669 classification: Poor): 1.6 months
- HR for OS [10]: 0.27
- HR for PFS [10]: 0.44
- Disease Control Rate PD [11]: 19 (83%)
- Disease Control Rate SD [11]: 4 (17%)
- OS [11]: 5.3 months
- Overall Survival Median, months (95% CI) [11]: 5.3 (3.1, 12.4) months
- PFS [11]: 2.1 months
- Progression-free Survival Median, months (95% CI) [11]: 2.1 (1.6, 2.9) months
- Disease Control Rate PD [12]: 11 (55%)
- Disease Control Rate SD [12]: 9 (45%)
- Overall Survival Median, months (95% CI) [13]: 8.7 (8.1, 15.6+) months
- Progression-free Survival Median, months (95% CI) [13]: 3.5 (2.5, 4.6) months
- Overall Survival HR (95% CI) multivariate [14]: 0.17 (0.05, 0.63)
- Overall Survival HR (95% CI) univariate [14]: 0.27 (0.10, 0.70)
- Progression-free Survival HR (95% CI) multivariate [14]: 0.44 (0.22, 0.89)
- Progression-free Survival HR (95% CI) univariate [14]: 0.44 (0.23, 0.83)
- Disease Control Rate PD [15]: 1 (33%)
- Disease Control Rate SD [15]: 2 (67%)
- OS [16]: 8.7 months
- PFS [16]: 3.5 months
- HR for OS [17]: 0.27
- HR for PFS [17]: 0.44
- HR for PFS (training cohort, hENT1 rs9394992, multivariate adjusted for liver metastases and adjuvant history): 0.44
- Disease Control Rate PD [18]: 15 (83%)
- Disease Control Rate SD [18]: 3 (17%)
- OS [18]: 4.4 months
- Overall Survival Median, months (95% CI) [18]: 4.4 (2.7, 7.2) months
- PFS [18]: 1.9 months
- Progression-free Survival Median, months (95% CI) [18]: 1.9 (1.6, 2.7) months
- Disease Control Rate PD [19]: 14 (64%)
- Disease Control Rate SD [19]: 8 (36%)
- Overall Survival Median, months (95% CI) [20]: 8.7 (8.1, 15.6+) months
- Progression-free Survival Median, months (95% CI) [20]: 3.4 (2.3, 4.4) months
- Overall Survival HR (95% CI) multivariate [21]: 0.20 (0.08, 0.51)
- Overall Survival HR (95% CI) univariate [21]: 0.21 (0.08, 0.51)
- Progression-free Survival HR (95% CI) multivariate [21]: 0.44 (0.23, 0.86)
- Progression-free Survival HR (95% CI) univariate [21]: 0.48 (0.25, 0.91)
- Disease Control Rate PD [22]: 2 (33%)
- Disease Control Rate SD [22]: 4 (67%)
- OS [23]: 8.7 months
- PFS [23]: 3.4 months
- HR for OS [24]: 0.21
- HR for PFS [24]: 0.48
- HR for OS [25]: 0.59
- HR for PFS [25]: 0.68
- OS [26]: 6.3 months
- PFS [26]: 2.1 months
- OS [27]: 8.3 months
- PFS [27]: 3.4 months
- Median OS [28]: 8.0 months
- Median PFS [28]: 2.6 months
